Assay results from patent publication US20090209937A1 (priority 2007, published 2009).
“Also recorded” adds a separate entry of the source.

Legend:
fully-kindled rats = settings: rat, in vivo
[1] = system: fully amygdala kindled rats; settings: rat, in vivo
Non-kindled rats = settings: rat, in vivo
[2] = system: amygdala and surrounding brain structures; settings: rat, in vivo
[3] = system: audiogenic seizure susceptible mice; settings: mouse, in vivo; cited from earlier work

## NC(=O)N1c2ccccc2C=Cc2ccccc21 [carbamazepine]
fully-kindled rats
  adverse neurological or behavioral effects: not associated with any observable adverse neurological or behavioral effects
[1]
  increase in mean AD threshold and decreases in mean seizure stage and mean behavioral seizure duration vs vehicle (p value): < 0.05
  kindling measures vs vehicle at later time points: no differences
  time course of activity after CED infusion (in words): apparent at 20 min but not at 24 h; also recorded: active at 20 min but not at 24 h

## ω-conotoxin GVIA [ω-CTX-G]
Non-kindled rats
  behavioral effects of the toxin infusion (in words): no or only mild behavioral effects
  body weight gain: 3.0±1.8%
  body weight loss: 10.3±0.9%
  cumulative dose corresponding to the threshold for locomotor arrest: 0.013 ± 0.001 nmol
  cumulative dose corresponding to the threshold for whole body tremors: 0.027 ± 0.002 nmol
  onset of locomotor activity arrest following the infusion: 5.0 ± 0.4 min
  onset of rhythmic whole body tremors following the infusion: 10.8 ± 0.9 min
  persistence of tremors: 24 h
  rats exhibiting locomotor activity arrest followed by whole body tremors: All six
fully-kindled rats
  body weight increase: 0.1±2.1%
  resolution of tremor: resolved by the third day after the infusion
  tremor after infusions of lower doses: No tremor was observed
[2]
  tissue damage after repeated CED infusions (cresyl violet and silver staining): minimal damage
[1]
  time of maximum increase in AD threshold / maximum protective effect after CED infusion: 48 h
[3]
  protection against seizures: protected against seizures
